In PubChem BioAssay (NCI):
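Protocol summary: plate cells (96-well), add compound at 5 concentrations, incubate 48 h, interpolate endpoints linearly. Here, GI50 denotes the concentration required for 50% inhibition of growth. The concentration for full growth arrest is given as TGI.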

Tests used:
Assay in all cases: NCI-60 cell line screen, 48 h
CAKI-1 renal = test system: CAKI-1 renal
HL-60(TB) leukemia = test system: HL-60(TB) leukemia
KM12 colon = test system: KM12 colon
MDA-N = test system: MDA-N
NCI/ADR-RES ovarian = test system: NCI/ADR-RES ovarian
OVCAR-3 ovarian = test system: OVCAR-3 ovarian
SF-268 CNS = test system: SF-268 CNS
SW-620 colon = test system: SW-620 colon
UACC-257 melanoma = test system: UACC-257 melanoma
OVCAR-5 ovarian = test system: OVCAR-5 ovarian

Row | SMILES | TGI (CAKI-1 renal) [µM] | TGI (HL-60(TB) leukemia) [µM] | TGI (KM12 colon) [µM] | TGI (MDA-N) [µM] | TGI (NCI/ADR-RES ovarian) [µM] | TGI (OVCAR-3 ovarian) [µM] | TGI (SF-268 CNS) [µM] | TGI (SW-620 colon) [µM] | TGI (UACC-257 melanoma) [µM] | TGI (OVCAR-5 ovarian) [µM] | GI50 (CAKI-1 renal) [µM] | GI50 (HL-60(TB) leukemia) [µM] | GI50 (KM12 colon) [µM] | GI50 (NCI/ADR-RES ovarian) [µM] | GI50 (OVCAR-3 ovarian) [µM] | GI50 (OVCAR-5 ovarian) [µM] | GI50 (SF-268 CNS) [µM] | GI50 (SW-620 colon) [µM] | GI50 (UACC-257 melanoma) [µM]
1 | CC(NC(=O)N(C)C)NC(=O)N(C)C | > 10 | > 10 | > 10 | > 10 | > 10 | > 10 | > 10 | > 10 | > 10 |  |  |  |  |  |  |  |  |  | 
2 | CC(=O)OC1C(COC(=O)c2ccccc2)OC(Nc2ncc(-c3ccc(Br)cc3)s2)C(OC(=O)c2ccccc2)C1OC(=O)c1ccccc1 (configuration not stated) |  |  |  | > 100 |  | > 100 | > 100 | > 100 | > 100 | > 100 |  |  |  |  |  |  |  |  | 
3 | O=c1cc(-c2cc(O)c(O)c(-c3c(O)cc4oc(-c5ccc(O)c(O)c5)cc(=O)c4c3O)c2)oc2cc(O)cc(O)c12 | > 25 | > 25 |  | > 25 | > 25 | > 25 | > 25 | > 25 | > 25 | > 25 |  |  |  |  |  |  |  |  | 
4 | O=C1c2ccccc2NC(=S)[C@@H]2CCCN12 | > 100 |  | > 100 | > 100 | > 100 | > 100 | > 100 | > 100 | > 100 | > 100 |  |  |  |  |  |  |  |  | 
5 | CO[C@@H]1O[C@H](C(=O)c2ccccc2)[C@H]2OC(C)(C)O[C@@H]12 | > 100 | > 100 | > 100 | > 100 | > 100 | > 100 | > 100 | > 100 | > 100 | > 100 |  |  |  |  |  |  |  |  | 
6 | N#Cc1nc(C2CCC2)oc1N | > 100 | > 100 | > 100 | > 100 | > 100 | > 100 | > 100 | > 100 | > 100 | > 100 |  |  |  |  |  |  |  |  | 
7 | COc1cc2ccc1OCc1cccc(n1)COc1ccc(cc1OC)C=Nc1ccc(cc1)N=C2 | > 100 | > 100 | > 100 | > 100 | > 100 | > 100 | > 100 | > 100 | > 100 | > 100 |  |  |  |  |  |  |  |  | 
8 | COC1=C(C)C(=O)c2c(c(COC(N)=O)c3n2CC(OC(C)=O)C3OC(C)=O)C1=O (configuration not stated) | < 0.0278 | 0.202 | 0.939 | 0.29 | 0.979 | 0.416 | 0.674 | 0.166 | 0.375 | 0.652 |  |  |  |  |  |  |  |  | 
9 | C[C@]12CC[C@@H]3c4cc(I)c(O)cc4CC[C@H]3[C@@H]1CC[C@@H]2O | 27 | > 33.4 | 13.2 | 5.77 | > 78.2 | 11.9 | 58.5 | 13.5 | 23.5 | 25.7 |  |  |  |  |  |  |  |  | 
10 | COc1ccc(-c2cc(-c3ccccc3)[nH]c(=S)c2C#N)cc1 | > 100 | > 100 | > 100 | > 100 | > 100 | 38.3 | > 100 | > 100 |  | > 100 |  |  |  |  |  |  |  |  | 
11 | O=c1[nH]nc(Cc2ccccc2)n1/N=C/c1ccncc1 | > 100 | > 100 | > 100 | > 100 | > 100 | > 100 | > 100 | > 100 | > 100 | > 100 |  |  |  |  |  |  |  |  | 
12 | CO[C@]12C[C@H](CNC(=O)c3ccc[nH]3)O[C@H]1NC(=O)N2 | > 100 | > 100 | > 100 |  | > 100 | > 100 | > 100 | > 100 | > 100 | > 100 |  |  |  |  |  |  |  |  | 
13 | COc1cc(NC(C)=O)ccc1C(=O)NN1C(=O)/C(=C/c2ccco2)N=C1c1ccccc1 | > 50 | > 50 |  | > 50 | > 50 | > 50 | > 50 | > 50 |  | > 50 |  |  |  |  |  |  |  |  | 
14 | COC(=O)/C(C#N)=C(/NCCN)Nc1ccccc1 | > 100 | > 100 |  | > 100 | > 100 | > 100 | > 100 | > 100 | > 100 | > 100 |  |  |  |  |  |  |  |  | 
15 | Nc1nn2c(=O)c3ccccc3nc2s1 | > 100 |  | > 100 | > 100 | > 100 | > 100 | > 100 | 38.5 | > 100 | > 100 |  |  |  |  |  |  |  |  | 
16 | COCCOCCOC1=CC(=O)c2c(O)ccc(O)c2C1=O | 2.04 | 2.52 | 3.3 | 0.289 | 4.85 | 2.75 | 6.93 | 1.72 | 1.43 |  |  |  |  |  |  |  |  |  | 
17 | CN(C)CC1CCC(CN(C)C)C1=O (configuration not stated) | 1.95 |  | 26.7 | 3.85 | 63.8 | 7.24 | 42.4 | 10.4 | 17.6 | 20.3 |  |  |  |  |  |  |  |  | 
18 | CC(=O)OCc1c(O)c2c(c(O)c1COC(C)=O)C(=O)C=CC2=O | 21.8 | 46.7 | 28.2 |  |  | 22.1 | 30.8 | 14.3 | 20.1 | 30.9 |  |  |  |  |  |  |  |  | 
19 | N#Cc1c(-c2ccccc2)cc(-c2ccc(Cl)cc2)[nH]c1=S | > 100 | > 100 | > 100 | > 100 | > 100 | > 100 | > 100 | > 100 |  | > 100 |  |  |  |  |  |  |  |  | 
20 | CCCCCCCCCc1nn2c(Cc3ccccc3)nnc2s1 | > 100 |  | 57.7 | 38.7 | 32.7 | 37 | 32.4 | 33.5 | 54.1 | 29.6 |  |  |  |  |  |  |  |  | 
21 | CN(C)CCNC(=O)c1cccc2nc(-c3ccccc3)oc12 |  | 96.2 | > 100 |  | 99.6 | > 100 | > 100 | > 100 | 98.1 | > 100 |  |  |  |  |  |  |  |  | 
22 | COc1ccc(CN2C3CC2CN(c2ccc(-c4cc(OCC(C)(C)O)cn5ncc(C#N)c45)cn2)C3)cn1 | > 100 | > 100 | > 100 |  | > 100 | > 100 | > 100 | > 100 | > 100 | > 100 | 4.78 | > 100 | > 100 | 28.7 | > 100 | > 100 | 4.6 | 4.49 | > 100
